Laboratory results: patent US20260055126A1, “SMALL MOLECULE COMPOUNDS WITH PHOSPHORYLATED ARYL STRUCTURES AND USE THEREOF” (HANGZHOU PHECDAMED CO., LTD., priority 2022, published 2026)
pIC50: −log10 of the molar value. Several values for one entry are separate records, joined by “and”; a condition that tells them apart may be missing. Identical values can stand only once. Like-named read-outs stand apart in the source and are kept apart here.

How the values were obtained:
[1] = target: recombinant TEAD2 protein (218-447, Uniprot ID: Q15562) (Homo sapiens (Human), UniProt Q15562); test: Thermal shift assay (protein melting point curve), TEAD2; assay type: binding; conditions: 10 μM TEAD protein, 50 μM test compound
Experimental: (§1) The ability of the compounds to increase the melting point of purified recombinant TEAD1/2/3/4 proteins is tested using a thermal shift assay. The strength of the compound's binding to the protein and the selectivity of the compound's binding to the four TEAD subtypes are evaluated by calculating the melting point shift ΔTm−° C. […] Based on the Δ Tm value, the ability of the compound to bind to the TEAD protein is divided into four levels: ++++, +++, ++, +.
(§2) Test method of protein melting point curve: 10 μL of the protein melting point curve experimental system (10 μM TEAD protein, 50 μM test compound, SYPRO® orange (55692, sigma)) is prepared in a 384-well fluorescence quantitative PCR plate according to the following system, and reacted at 4° C. in the dark for 20 minutes. On-machine reaction: ABI QuantStudio Dx fluorescence quantitative PCR instrument; program: from 25° C. to 80° C., increasing the temperature at a rate of 0.05° C./s, and reading the fluorescence channel signal of the corresponding wavelength of SYPRO® orange every second.

[2] = target: recombinant TEAD2 protein central pocket (Homo sapiens (Human), UniProt Q15562); test: Competitive thiol binding assay (CPM assay), TEAD2; conditions: 150 nM recombinant TEAD protein, 150 nM CPM
Experimental: (§3) Diluting the tested compound in gradient to 5 uL with buffer (25 mM HEPES, 150 mM NaCl, pH6.5), then adding 5 μL of the newly prepared 0.45 uM recombinant TEAD protein solution, and incubating at room temperature for 10 minutes. […] After shaking the plate at room temperature for 1 hour, measuring the fluorescence intensity (Ex/Em: 380/470 nm).

[3] = target: recombinant TEAD3 protein (218-435, Uniprot ID: Q99594) (Homo sapiens (Human), UniProt Q99594); test: Thermal shift assay (protein melting point curve), TEAD3; assay type: binding; conditions: 10 μM TEAD protein, 50 μM test compound
Experimental: as §1, §2

[4] = target: recombinant TEAD1 protein central pocket (Homo sapiens (Human), UniProt P28347); test: Competitive thiol binding assay (CPM assay), TEAD1; conditions: 150 nM recombinant TEAD protein, 150 nM CPM
Experimental: as §3

[5] = target: recombinant TEAD4 protein central pocket (Homo sapiens (Human), UniProt Q15561); test: Competitive thiol binding assay (CPM assay), TEAD4; conditions: 150 nM recombinant TEAD protein, 150 nM CPM
Experimental: as §3

TEAD family proteins = test: Thermal shift assay, summary over all TEAD subtypes; assay type: binding; conditions: summary of Table 1
Experimental: as §1, §2

[6] = target: recombinant TEAD4 protein (217-434, Uniprot ID: Q15561) (Homo sapiens (Human), UniProt Q15561); test: Thermal shift assay (protein melting point curve), TEAD4; assay type: binding; conditions: 10 μM TEAD protein, 50 μM test compound
Experimental: as §1, §2

[7] = system: recombinant TEAD1 protein (194-411, Uniprot ID: P28347); test: Thermal shift assay (protein melting point curve), TEAD1; assay type: binding; set-up: key to the marks not given beside the values; conditions: 10 μM TEAD protein, 50 μM test compound
Experimental: as §1, §2

Caco-2 cells = test: Permeability test on Caco2 cells; assay type: in vitro ADME; conditions: for Penetration Type: Caco2 cell model
Experimental: (§4) After resuscitation, the Caco-2 cells are transferred to a conventional culture dish and cultured in a high-glucose DMEM medium (containing 10% FBS) at 37° C. and 5% CO2 in an incubator. When the cells cover 80% to 95% of the bottom of the dish, they are digested with trypsin containing 0.25% EDTA to disperse them into a single cell suspension, and the cell concentration is determined using a cell counter, after that, the concentration of the cell suspension is adjusted to 2 to 2.5×10^5/mL with fresh culture medium and inoculated into a Transwell polycarbonate membrane 12-well plate, the fresh culture medium is replaced every two days in the first two weeks and once a day in the last week, the culture is continued for 19 to 21 days to obtain a fully differentiated single cell layer.

[8] = Permeability test on Caco2 cells; assay type: in vitro ADME; conditions: human, Caco-2, AP→BL
Experimental: as §4

[9] = Mouse plasma pharmacokinetic test; assay type: in vivo, CD-1 mice
Description: In this example, different compounds are used to perform a mouse pharmacokinetic experiment, and the specific steps are as follows: Animal information: CD-1 mice, male, about 20 g, purchase from Beijing Weitonglihua Experimental Animal Technology Co., Ltd.
Animal dietary status: Animals are not fasted before administration and allowed to drink water freely.
Compound preparation method: for intragastric administration (IG)(G1 group), preparing with 0.5% CMC-Na, and for intravenous injection(IV) (G2 group), preparing 5% DMSO+30% PEG400+65% water. […]
Sampling time points of G1 group: 8 points in total, namely 10 min, 30 min, 1 h, 2 h, 4 h, 6 h, 8 h and 24 h after administration, among them, animals G1M01-G1M03 are sampled at 3 time points, namely 10 min, 1 h and 6 h; animals G1M04-G1M06 are sampled at 3 time points, namely 30 min, 2 h and 8 h; animals G1M07-G1M09 are sampled at 2 time points, namely 4 h and 24 h.
Sampling time points of G2 group: 9 points in total, namely 5 min, 10 min, 30 min, 1 h, 2 h, 4 h, 6 h, 8 h, 24 h after administration. It is recommended that animals G2M01-G2M03 are sampled at 3 time points, namely 5 min, 1 h, and 6 h; animals G2M04-G2M06 are sampled at 3 time points, namely 10 min, 2 h, and 8 h; animals G2M07-G2M09 are sampled at 3 time points, namely 30 min, 4 h, and 24 h.
Sample collection: On the day of the experiment, collecting approximately 0.1 mL of whole blood samples at each preset time point and placing in EDTA-K2 anticoagulant tubes.
Sample processing: Within 30 minutes after whole blood sample collection, centrifuging at 4° C., 12,000 rpm for 5 minutes to separate plasma, collecting the upper plasma sample into a sample tube, and freezing the plasma sample in a −10˜−30° C. refrigerator within 30 minutes and transferring to a −60˜−90° C. refrigerator within 24 hours.
Sample testing and data processing: LC/MS/MS testing, WinNonlin for fitting and pharmacokinetic parameter calculation.

[10] = In vitro liver microsome stability, mouse; assay type: in vitro ADME
Experimental: (§5) Testosterone is selected as the positive reference compound. The specific method is as follows:
(§6) Preparing 0.1MK3 PO4 (pH 7.4) buffer and 3×NADPH stock solution (6 mM, 5 mg/mL), and preheating in a 37° C. water bath; preparing spiking solution of tested compound and control compound: adding 5 μL compound stock solution (10 mM) to 95 μL acetonitrile; preparing 1.5 μM spiking solution in microsomes (0.75 mg/mL): add 1.5 μL spiking solution and 18.75 μL liver microsome solution (20 mg/mL) to 479.75 μL K3PO4 buffer; taking 30 μL spiking solution in microsomes and adding it to the multiwell plate, and incubating at 37° C. for 5 min; adding 15 μL of NADPH stock solution to each well, starting to react, and timing; adding 150 μL of acetonitrile solution containing IS at 0 min, 5 min, 15 min, 30 min, 45 min and 60 min respectively to terminate the reaction; after 10 min of oscillation, centrifuging the reaction at 6000 rpm for 15 min; taking 80 μL of supernatant from each well for LC/MS detection and calculating Ti/2.
(§7) Liver microsomes of mice, rats, dogs, and human used in the experiment are purchased from Xenotech.

[11] = In vitro liver microsome stability, human; assay type: in vitro ADME
Experimental: as §5, §6, §7

[12] = target: recombinant TEAD3 protein central pocket (Homo sapiens (Human), UniProt Q99594); test: Competitive thiol binding assay (CPM assay), TEAD3; conditions: 150 nM recombinant TEAD protein, 150 nM CPM
Experimental: as §3

[13] = single replicate, read-out: Papp
[14] = CD-1, mouse, plasma, VT103 in mice, IV

Chain of recombinant TEAD1 protein central pocket (P28347 whole entry): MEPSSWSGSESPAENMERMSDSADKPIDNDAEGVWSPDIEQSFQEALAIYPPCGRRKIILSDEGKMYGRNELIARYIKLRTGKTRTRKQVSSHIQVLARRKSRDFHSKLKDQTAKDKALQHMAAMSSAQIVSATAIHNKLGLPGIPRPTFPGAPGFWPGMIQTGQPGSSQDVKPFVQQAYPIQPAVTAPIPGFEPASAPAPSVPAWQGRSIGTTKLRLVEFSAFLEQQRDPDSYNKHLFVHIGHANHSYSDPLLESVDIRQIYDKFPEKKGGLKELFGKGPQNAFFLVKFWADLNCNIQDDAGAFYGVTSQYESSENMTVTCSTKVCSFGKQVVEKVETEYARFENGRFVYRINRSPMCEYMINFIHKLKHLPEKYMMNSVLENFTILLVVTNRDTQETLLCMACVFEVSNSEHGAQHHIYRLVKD
Chain of recombinant TEAD2 protein central pocket (Q15562 whole entry): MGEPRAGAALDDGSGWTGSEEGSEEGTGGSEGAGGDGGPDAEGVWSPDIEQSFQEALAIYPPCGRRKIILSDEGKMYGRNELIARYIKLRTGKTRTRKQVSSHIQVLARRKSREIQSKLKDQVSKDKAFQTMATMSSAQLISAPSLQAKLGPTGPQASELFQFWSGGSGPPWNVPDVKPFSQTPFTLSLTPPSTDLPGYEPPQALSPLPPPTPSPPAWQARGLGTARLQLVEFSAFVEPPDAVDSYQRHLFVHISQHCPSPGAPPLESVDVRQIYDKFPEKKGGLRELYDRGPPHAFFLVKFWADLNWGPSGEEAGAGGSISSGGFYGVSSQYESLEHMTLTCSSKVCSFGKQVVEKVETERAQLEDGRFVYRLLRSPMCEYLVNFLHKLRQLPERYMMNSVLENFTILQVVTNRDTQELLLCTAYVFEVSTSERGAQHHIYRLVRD
Chain of recombinant TEAD4 protein central pocket (Q15561 whole entry): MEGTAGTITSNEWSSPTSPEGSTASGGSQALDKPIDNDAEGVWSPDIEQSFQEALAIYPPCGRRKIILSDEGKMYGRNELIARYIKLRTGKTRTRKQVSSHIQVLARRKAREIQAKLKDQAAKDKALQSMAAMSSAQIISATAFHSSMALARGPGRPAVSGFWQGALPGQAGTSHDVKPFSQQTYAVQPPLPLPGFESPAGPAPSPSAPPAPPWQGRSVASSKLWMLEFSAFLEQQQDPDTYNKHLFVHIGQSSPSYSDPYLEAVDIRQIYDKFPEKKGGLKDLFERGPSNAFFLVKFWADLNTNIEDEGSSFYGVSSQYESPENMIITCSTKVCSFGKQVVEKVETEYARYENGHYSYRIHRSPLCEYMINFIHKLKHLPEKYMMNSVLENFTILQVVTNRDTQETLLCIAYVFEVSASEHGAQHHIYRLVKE
Chain of recombinant TEAD3 protein central pocket (Q99594 whole entry): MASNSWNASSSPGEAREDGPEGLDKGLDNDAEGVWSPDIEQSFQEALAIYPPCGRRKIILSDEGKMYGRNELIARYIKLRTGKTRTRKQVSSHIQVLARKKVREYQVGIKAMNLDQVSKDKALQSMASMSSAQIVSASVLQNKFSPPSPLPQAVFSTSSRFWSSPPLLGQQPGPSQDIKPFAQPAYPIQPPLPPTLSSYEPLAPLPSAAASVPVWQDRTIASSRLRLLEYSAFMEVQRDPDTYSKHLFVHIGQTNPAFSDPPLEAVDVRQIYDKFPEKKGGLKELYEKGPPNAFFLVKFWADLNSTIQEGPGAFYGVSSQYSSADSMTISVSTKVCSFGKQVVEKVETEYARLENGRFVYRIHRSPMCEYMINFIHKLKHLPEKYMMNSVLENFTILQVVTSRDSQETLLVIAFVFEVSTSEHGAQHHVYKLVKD
Chain of recombinant TEAD2 protein (218-447, Uniprot ID: Q15562) (Q15562 218-447): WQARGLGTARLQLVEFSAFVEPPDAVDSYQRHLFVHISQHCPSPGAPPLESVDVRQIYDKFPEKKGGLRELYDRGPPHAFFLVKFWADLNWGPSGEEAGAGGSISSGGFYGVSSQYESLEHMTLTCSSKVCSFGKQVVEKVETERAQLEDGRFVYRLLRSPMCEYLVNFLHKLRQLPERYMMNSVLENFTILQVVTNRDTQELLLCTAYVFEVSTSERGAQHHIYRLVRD
Chain of recombinant TEAD4 protein (217-434, Uniprot ID: Q15561) (Q15561 217-434): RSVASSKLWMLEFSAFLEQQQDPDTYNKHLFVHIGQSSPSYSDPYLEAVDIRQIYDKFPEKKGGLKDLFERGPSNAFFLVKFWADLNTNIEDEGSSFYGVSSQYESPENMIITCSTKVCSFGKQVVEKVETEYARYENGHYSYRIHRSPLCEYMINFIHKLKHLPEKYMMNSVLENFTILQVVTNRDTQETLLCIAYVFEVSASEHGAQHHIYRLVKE
Chain of recombinant TEAD3 protein (218-435, Uniprot ID: Q99594) (Q99594 218-435): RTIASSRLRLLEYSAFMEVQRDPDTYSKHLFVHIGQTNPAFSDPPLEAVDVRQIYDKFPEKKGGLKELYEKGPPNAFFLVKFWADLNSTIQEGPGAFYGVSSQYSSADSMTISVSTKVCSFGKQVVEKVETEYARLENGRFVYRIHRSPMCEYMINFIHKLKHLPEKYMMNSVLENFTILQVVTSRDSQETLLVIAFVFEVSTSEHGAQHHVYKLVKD

Structure (SMILES)	Δ T m (TEAD2) [1]	pIC50 [2]	Δ T m (TEAD3) [3]	pIC50 [4]	pIC50 [5]	binding ability to each subtype of TEAD family proteins (TEAD family proteins)	Δ T m (TEAD4) [6]	Δ T m (TEAD1) [7]	Papp (Caco-2 cells; AP→BL, single replicate)	Penetration Type (Caco-2 cells)	Papp at 120 min [8, 13]	pIC50 [12]	also measured
O=P1(c2ccc(Nc3ccc(C(F)(F)F)cc3)c(-c3ncccn3)c2)CC(CO)C1 (stereo not shown) [Compound 21]	++++	6.51	+++	6.70	6.96	good binding abilities	++++	++++					
COCCc1ccc(OCC(O)CNC(C)C)cc1 (stereo not shown) [Metoprolol]									18.4 10^−6 cm/s	High	17.8 ×10⁻⁶ cm/s		
Cn1cnc(-c2cc(P(C)(C)=O)ccc2Nc2ccc(C(F)(F)F)cc2)c1 [Compound 64]						good binding abilities		++++					F % ([9]; CD-1 mice, IG 10 mg/kg vs IV 1 mg/kg): 87.1%; AUC0-t ([9]; CD-1 mice, single IG 10 mg/kg): 57458 ng·h/mL; AUC0-∞ ([9]; CD-1 mice, single IG 10 mg/kg): 69572 ng·h/mL; Cmax ([9]; CD-1 mice, single IG 10 mg/kg): 4063 ng/mL; MRT0-t ([9]; CD-1 mice, single IG 10 mg/kg): 8.16 h; MRT0-∞ ([9]; CD-1 mice, single IG 10 mg/kg): 13.3 h; Tmax ([9]; CD-1 mice, single IG 10 mg/kg): 2.67 h; t1/2 ([9]; CD-1 mice, single IG 10 mg/kg): 9.43 h; AUC0-t ([9]; CD-1 mice, single IV 1 mg/kg): 6596 ng·h/mL; AUC0-∞ ([9]; CD-1 mice, single IV 1 mg/kg): 7208 ng·h/mL; CL ([9]; CD-1 mice, single IV 1 mg/kg): 0.14 L/h/kg; MRT0-t ([9]; CD-1 mice, single IV 1 mg/kg): 5.85 h; MRT0-∞ ([9]; CD-1 mice, single IV 1 mg/kg): 8.26 h; Vss ([9]; CD-1 mice, single IV 1 mg/kg): 1.15 L/kg; t1/2 ([9]; CD-1 mice, single IV 1 mg/kg): 6.98 h; pharmacokinetic properties in mice ([9]; mice): good pharmacokinetic properties; metabolic stability ([10]; mouse liver microsome environment): good metabolic stabilities; mouse half-life ([10]; mouse liver microsomes): > 186 min; metabolic stability ([11]; human liver microsome environment): good metabolic stabilities; human half-life ([11]; human liver microsomes): > 186 min
CCP(=O)(CC)c1ccc(Nc2ccc(C(F)(F)F)cc2)c(-c2cn(C)cn2)c1 [Compound 76]	++++	6.28	+++	6.47	6.66	good binding abilities	++++	++++				6.15	
CNS(=O)(=O)c1ccc(Nc2ccc(C(F)(F)F)cc2)c(-c2cn(C)cn2)c1 [VT103, reference compound]		6.06		5.92	5.60							5.57	concentration at 24 h ([9]; CD-1, mouse, plasma, oral, VT103 in mice, IG 7 mg/kg, converted from ng/ml, read-out: blood concentration after 24 hours): 828 nM; bioavailability ([9]; CD-1, mouse, plasma, po, 7 mg/kg, VT103 in mice): 75%; concentration at 24 h ([9]; CD-1, mouse, plasma, VT103 in mice, 7 mg/kg oral/IG, read-out: plasma drug concentration after 24 hours C24h): 340 ng/mL; clearance [9, 14]: 4.7 mL/min/kg; half-life [9, 14]: 792 min; Vd ([9]; CD-1, mouse, plasma, VT103 in mice, IV, read-out: VSS): 4.5 L/kg; Cmax ([9]; CD-1, mouse, plasma, VT103 in mice, per oral (PO) 7 mg/kg, read-out: Cmax): 896 ng/mL
O=C1OC2(c3ccc(O)cc3Oc3cc(O)ccc32)c2ccccc21 [fluorescein]									0.334 10^−6 cm/s	Zero	0.364 ×10⁻⁶ cm/s		Receiving chamber concentration Area ratio/OD (Caco-2 cells; AP→BL, single replicate): 4.40E+07 and 4.05E+07; Papp at 120 min ([8]; n = 2, read-out: Papp average value): 0.349 ×10⁻⁶ cm/s
